In patent US20140038281A1, “SYSTEM FOR CARGO DELIVERY INTO THE CELLS” (CEPEP III AB, priority 2011, published 2014):

System: Hela pLuc 705 cells
Assay: Toxicity measurements (MTS cell proliferation assay)
Type: cell-based
Settings: peptide:2'-OMe ON complexes, 200 nM ON, 24 hours, most effective concentrations (FIG. 6)
Description: Cell proliferation was studied with CellTiter 96® A Queous Non-Radioactive Cell Proliferation Assay (MTS) according to the manufacturer's instructions. Briefly, 10000 Hela pLuc 705 cells per well were seeded 1 day prior to experiment on a 96-well plate in complete DMEM. Cells were treated with peptide: 2′-OMe ON complexes at four different molar ratios (5:1, 7:1, 10:1 and 20:1) for 4 hours in serum-free medium, followed by the addition of 10% serum containing medium and incubated for additional 20 hours. MTS was added according to the manufacturer's general protocol (Promega Biotech AB, Sweden). The conversion of MTS into aqueous, soluble formazan is accomplished by dehydrogenase enzymes found in metabolically active cells. The absorbance of formazan product was measured at 490 nm, which is directly proportional to the number of living cells in culture. Absorbance was measured on Tecan Sunrise microplate absorbance reader (Tecan Group Ltd., Switzerland) and the percentage of viable cells was determined using GraphPad Prism software 5.0 (Graphpad Software, CA, USA).

Structure (SMILES)	toxicity (cell viability by MTS)
CCCCCCCCCCCCCCCCCC(=O)N[C@@H](C)C(=O)NCC(=O)N[C@@H](Cc1ccc(OP(=O)(O)O)cc1)C(=O)N[C@@H](CC(C)C)C(=O)N[C@@H](CC(C)C)C(=O)NCC(=O)N[C@@H](CCCCN)C(=O)N[C@H](C(=O)N[C@@H](CC(N)=O)C(=O)N[C@@H](CC(C)C)C(=O)N[C@@H](CCCCN)C(=O)N[C@@H](C)C(=O)N[C@@H](CC(C)C)C(=O)N[C@@H](C)C(=O)N[C@@H](C)C(=O)N[C@@H](CC(C)C)C(=O)N[C@@H](C)C(=O)N[C@@H](CCCCN)C(=O)N[C@@H](CCCCN)C(=O)N[C@H](C(=O)N[C@@H](CC(C)C)C(N)=O)[C@@H](C)CC)[C@@H](C)O [NickFect 1, Stearyl-AGY(PO3)LLGKTNLKALAALAKKIL-NH2]	not toxic
CCCCCCCCCCCCCCCCCC(=O)N[C@@H](C)C(=O)NCC(=O)N[C@@H](Cc1ccc(O)cc1)C(=O)N[C@@H](CC(C)C)C(=O)N[C@@H](CC(C)C)C(=O)NCC(=O)N[C@@H](CCCCN)C(=O)N[C@H](C(=O)N[C@@H](CC(N)=O)C(=O)N[C@@H](CC(C)C)C(=O)N[C@@H](CCCCN)C(=O)N[C@@H](C)C(=O)N[C@@H](CC(C)C)C(=O)N[C@@H](C)C(=O)N[C@@H](C)C(=O)N[C@@H](CC(C)C)C(=O)N[C@@H](C)C(=O)N[C@@H](CCCCN)C(=O)N[C@@H](CCCCN)C(=O)N[C@H](C(=O)N[C@@H](CC(C)C)C(N)=O)[C@@H](C)CC)[C@@H](C)OP(=O)(O)O [NickFect 2, Stearyl-AGYLLGKT(PO3)NLKALAALAKKIL-NH2]	not toxic
